Assay results from patent US12303572B2 (Duke University, priority 2015, dated 2025).

Columns and labels:
[1] = In vitro (phantom) quantitative T2 mapping at 7T, spin-spin relaxation contrast
Protocol: Data are provided from quantitative T2 mapping at 7T using a RARE FSE protocol with at least 6 different echo times, at solute concentrations of 10 and 20 mM.

[2] = Ascorbate T2 enhancement in rodent model of neocortical spreading depression; type: in vivo; settings: slices 3 and 4 mm anterior to bregma, KCl-induced SD in right hemisphere
Description: FIG. 10. […] The craniectomy site is 1 mm posterior to bregma, a skull landmark representing the posterior third of the underlying brain. The above two rows show T2 images and quantitative color lute T2 maps of signal change in rodent brain that are 3 and 4 mm anterior to bregma, that is, distant from the SD induction site. […] These marked cortical signal changes are consistent with the known hypermetabolic activity that occurs with SD, as also observed with ^18F-FDG PET, and with direct microdialysis and metabolomic determinations.
Spreading depression (SD) is an experimentally reproducible pathophysiological phenomenon of CNS tissues originally described 60 years ago by Loao. After a focal region of cortex reaches a critical threshold of ionic perturbation, a massive spreading wave of cellular depolarization may begin and spread through gray matter tissue, but remain confined to the gray matter zone in which it was induced, not crossing white matter pathways. […]
The craniectomy site is 1 mm posterior to bregma, a skull landmark representing the posterior third of the underlying brain. The above two rows show T2 images and quantitiative color lute T2 maps of signal change in rodent brain that are 3 and 4 mm anterior to bregma, that is, distant from the SD induction site. […]

[3] = Perfusion and viability cardiac imaging with parenteral ascorbate at 7T; type: in vivo; settings: initial i.v. bolus, rat heart
Protocol: FIGS. 11A-11B. Perfusion and viability cardiac imaging with parenteral ascorbate. FIG. 11A depicts the two primary imaging planes, coronal and axial, for rat heart imaging at 7T.
Perfusion and viability cardiac imaging with parenteral ascorbate was assessed. FIG. 11A, depicts the two primary imaging planes, coronal and axial, for rat heart imaging at 7T. Retrospective gating with respiratory coupling was employed to collect images at 7T. The acquisition sequence is moderately T2-weighted and can be further optimized to enhance the contrast effect.

[4] = T2 contrast changes in guinea pig brain at 7T after i.v. ascorbate formulations; type: in vivo, guinea pigs; settings: 2 g/kg over 60 min slow infusion
[5] = oral, even at doses more than 100 times the recommended daily allowance; cited from earlier work
[6] = physiological pH of 7.4; cited from earlier work

Row | Compound | change in T2 relaxation ([1]; 10 mM ascorbate with physiological glucose (5 mM) or HCO3- (25 mM), pH 7.0) [%] | pH at which the T2 effect is maximized ([1]; phantoms, FIG. 3C) | lowest concentration with statistically significant negative T2 contrast (signal loss) ([1]; vs control (phosphate-buffered saline), conventional FSE acquisition) [mM] | effect of H2O2 on ascorbate T2 enhancement ([1]; μM H2O2, phantoms, FIG. 3B) | T2 signal change in cerebral cortex [2] | T2 signal intensity in left ventricle [3] | FSE T2 images before and after infusion [4] | plasma concentration [5] [µM] | fraction present as mono anion [6] [%] | T2 contrast effect (T2 relaxation in ms) relative to meglumine or ascorbate alone ([1]; 10 mM, water, neutral pH, FIG. 3D)
1 | O=C1O[C@H]([C@@H](O)CO)C(O)=C1O [ascorbate, L-ascorbic acid] | 50 | 7.0-7.4 | 1 to 5 | marked synergism | clear T2 asymmetry in the right cerebral cortex as compared to the left | transient decrease in T2 signal intensity throughout the left ventricle | dramatic signal intensity differences throughout the brain parenchyma | ≤ 200 | 99 | –
2 | meglumine ascorbate | – | – | – | – | – | – | – | – | – | approximately 4 times
